Test results published in patent US9212151B2, “Heterocyclic compounds useful for kinase inhibition” (Amitech Therapeutic Solutions, Inc., priority 2010, dated 2015).

Experiment: MTT cell viability assay, compounds at 5, 1 and 0.2 μM, 48 hours
Format: cell-based
Settings: human, A549 tumor cells
Method in brief: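 A549 cells were seeded at 2500/well in DMEM + 10% FBS, grown overnight, then exposed to compound for 48 h. Viability was read by MTT (5 mg/ml, 4 h), with formazan dissolved in DMSO and absorbance measured at 560/570 nm to give survival rate.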

SMILES | viability at 48 h, 0.2 µM (0.2 μM) [%] | viability at 48 h, 1 µM (1 μM) [%] | viability at 48 h, 5 µM (5 μM) [%] | viability at 48 h, 0.2 µM (0.2 μM compound) [%] | viability at 48 h, 1 µM (1 μM compound) [%] | viability at 48 h, 5 µM (5 μM compound) [%]
FC(F)(F)c1cccc(Nc2nnc(-c3ccc(Oc4ccncc4C(F)(F)F)cc3)[nH]2)c1 [Compound 8] | > 70 | > 70 | 50 to 70 |  |  | 
O=c1cc(COc2ccc(-c3nnc(Nc4cccc(C(F)(F)F)c4)[nH]3)cc2)c2ccccc2[nH]1 [Compound 161] | > 70 | 50 to 70 | < 50 |  |  | 
COc1cc(Oc2ccc(-c3nnc(Nc4cccc(C(F)(F)F)c4)[nH]3)cc2)ccn1 [Compound 73] | > 70 | > 70 | < 50 |  |  | 
COc1cc(-c2nnc(Nc3cccc(C(F)(F)F)c3)[nH]2)ccc1Oc1cc(N)nc(SC)n1 [Compound 109] | > 70 | > 70 | < 50 |  |  | 
FC(F)(F)c1cccc(Nc2nnc(-c3ccc(Oc4ccncc4)c(Cl)c3)[nH]2)c1 [Compound 103] | > 70 | > 70 | 50 to 70 |  |  | 
FC(F)(F)c1cccc(Nc2nnc(-c3ccc(Oc4ccnc5cc(C(F)(F)F)ccc45)cc3)[nH]2)c1 [Compound 148] | > 70 | > 70 | > 70 |  |  | 
FC(F)(F)c1cccc(Nc2nnc(-c3cccc(Oc4ccnc5cc(C(F)(F)F)ccc45)c3)[nH]2)c1 [Compound 165] | > 70 | > 70 | > 70 |  |  | 
COCCOc1cc(Oc2cccc(-c3nnc(Nc4cccc(C(F)(F)F)c4)[nH]3)c2)nc(N)n1 [Compound 58] | > 70 | > 70 | > 70 |  |  | 
COCCOCCSc1nc(N)cc(Oc2ccc(-c3nnc(Nc4cccc(C(F)(F)F)c4)[nH]3)cc2)n1 [Compound 113] | > 70 | > 70 |  |  |  | 
FC(F)(F)c1cccc(Nc2nnc(-c3cccc(Oc4cncc5ccccc45)c3)[nH]2)c1 [Compound 164] | > 70 | > 70 | 50 to 70 |  |  | 
FC(F)(F)c1cccc(Nc2nnc(-c3cccc(Oc4ccncc4)c3)[nH]2)c1 [Compound 17] | > 70 | 50 to 70 | 50 to 70 |  |  | 
CSc1nc(N)cc(Oc2cccc(-c3nnc(Nc4ccc(F)c(C(F)(F)F)c4)[nH]3)c2)n1 [Compound 106] | > 70 | > 70 | > 70 |  |  | 
Cc1cc(Oc2cccc(-c3nnc(Nc4cccc(C(F)(F)F)c4)[nH]3)c2)ccn1 [Compound 91] | > 70 | > 70 | 50 to 70 |  |  | 
COc1ccc2c(Oc3cccc(-c4nnc(Nc5cccc(C(F)(F)F)c5)[nH]4)c3)cc(C)nc2c1 [Compound 194] | > 70 | > 70 | > 70 |  |  | 
Cc1cc(Oc2cccc(-c3nnc(Nc4cccc(C(F)(F)F)c4)[nH]3)c2)c2ccccc2n1 [Compound 168] | > 70 | > 70 | 50 to 70 |  |  | 
Cc1ccc(-c2nnc(Nc3cccc(C(F)(F)F)c3)[nH]2)cc1Oc1cccnc1 [Compound 177] | > 70 | > 70 | > 70 |  |  | 
CC(C)(C)Sc1cc(Oc2ccc(-c3nnc(Nc4cccc(C(F)(F)F)c4)[nH]3)cc2)nc(N)n1 [Compound 141] | > 70 | > 70 | < 50 |  |  | 
COc1cc(Oc2ccc(-c3nnc(Nc4cccc(C(F)(F)F)c4)[nH]3)cc2)ncn1 [Compound 76] | > 70 | > 70 | 50 to 70 |  |  | 
CSc1nc(N)cc(Oc2ccc(-c3nnc(Nc4cc(C(C)(C)C)on4)[nH]3)cc2)n1 [Compound 129] | > 70 | > 70 | > 70 |  |  | 
Nc1cc(Oc2ccc(-c3nnc(Nc4cccc(C(F)(F)F)c4)s3)cc2)nc(N)n1 [Compound 43] | > 70 | > 70 | > 70 |  |  | 
Nc1cc(Oc2ccc(-c3nnc(Nc4cccc(C(F)(F)F)c4)[nH]3)cc2)nc(SCC(=O)O)n1 [Compound 116] | > 70 | > 70 | > 70 |  |  | 
NS(=O)(=O)c1cnccc1Oc1ccc(-c2nnc(Nc3cccc(C(F)(F)F)c3)[nH]2)cc1 [Compound 7] | > 70 | > 70 | > 70 |  |  | 
Nc1nc(OCC2CC2)cc(Oc2ccc(-c3nnc(Nc4cccc(C(F)(F)F)c4)[nH]3)cc2)n1 [Compound 84] | > 70 | > 70 | > 70 |  |  | 
COc1nc(Oc2ccc(-c3nnc(Nc4cccc(C(F)(F)F)c4)[nH]3)cc2)c2cc[nH]c2n1 [Compound 75] | > 70 | > 70 | > 70 |  |  | 

SMILES | viability at 48 h, 0.2 µM (0.2 μM) [%] | viability at 48 h, 1 µM (1 μM) [%] | viability at 48 h, 5 µM (5 μM) [%] | viability at 48 h, 0.2 µM (0.2 μM compound) [%] | viability at 48 h, 1 µM (1 μM compound) [%] | viability at 48 h, 5 µM (5 μM compound) [%]
COC(=O)c1cccc(Nc2nnc(-c3ccc(Oc4cc(N)nc(SC)n4)cc3)[nH]2)c1 [Compound 138] | > 70 | > 70 | < 50 |  |  | 
FC(F)(F)c1cccc(Nc2nnc(-c3cccc(Oc4ccncc4)c3)o2)c1 [Compound 37] | > 70 | > 70 | > 70 |  |  | 
Fc1ccc2c(Oc3cccc(-c4nnc(Nc5cccc(C(F)(F)F)c5)[nH]4)c3)ccnc2c1 [Compound 192] | > 70 | > 70 | > 70 |  |  | 
FC(F)(F)Oc1ccc2c(Oc3ccc(-c4nnc(Nc5cccc(C(F)(F)F)c5)[nH]4)cc3)ccnc2c1 [Compound 163] | > 70 | > 70 | > 70 |  |  | 
CSc1nc(N)cc(Oc2ccc(-c3nnc(Nc4cccc(C(F)(F)F)c4)[nH]3)cc2C)n1 [Compound 102] | > 70 | > 70 | > 70 |  |  | 
CSc1nc(N)cc(Oc2ccc(-c3nnc(Nc4cccc(C(F)(F)F)c4)[nH]3)cc2Cl)n1 [Compound 104] | > 70 | > 70 | < 50 |  |  | 
CSc1nc(N)cc(Oc2cc(-c3nnc(Nc4cccc(C(F)(F)F)c4)[nH]3)ccc2C)n1 [Compound 179] | > 70 | > 70 | 50 to 70 |  |  | 
FC(F)(F)c1cccc(-c2nnc(Nc3ccc(Oc4cccnc4)cc3)[nH]2)c1 [Compound 174] | > 70 | > 70 | > 70 |  |  | 
COc1nc(N)cc(Oc2cccc(-c3nnc(Nc4cccc(C(F)(F)F)c4)[nH]3)c2)n1 [Compound 89] | > 70 | > 70 | > 70 |  |  | 
CS(=O)(=O)c1nc(N)cc(Oc2ccc(-c3nnc(Nc4cccc(C(F)(F)F)c4)[nH]3)cc2)n1 [Compound 64] | > 70 | > 70 | > 70 |  |  | 
FC(F)(F)c1cccc(Nc2nnc(-c3cccc(Oc4ncnc5[nH]ccc45)c3)[nH]2)c1 [Compound 21] | > 70 | > 70 | > 70 |  |  | 
Nc1cc(Oc2ccc(-c3nnc(Nc4cccc(C(F)(F)F)c4)[nH]3)cc2)c2ccccc2n1 [Compound 69] | > 70 | > 70 | > 70 |  |  | 
Nc1cc(Oc2cccc(-c3nnc(Nc4cccc(C(F)(F)F)c4)[nH]3)c2)c2ccccc2n1 [Compound 86] | > 70 | > 70 | > 70 |  |  | 
FC(F)(F)c1cccc(Nc2nnc(-c3cccc(Oc4cncnc4)c3)[nH]2)c1 [Compound 101] | > 70 | > 70 | > 70 |  |  | 
COc1ccc2nccc(Oc3cccc(-c4nnc(Nc5cccc(C(F)(F)F)c5)[nH]4)c3)c2c1 [Compound 191] | > 70 | > 70 | > 70 |  |  | 
CSc1nc(N)cc(Oc2ccc(-c3nnc(Nc4cccc5c4CCCC5)[nH]3)cc2)n1 [Compound 135] | < 50 | < 50 | < 50 |  |  | 
CN(C)c1cc(Oc2ccc(-c3nnc(Nc4cccc(C(F)(F)F)c4)[nH]3)cc2)c2ccccc2n1 [Compound 196] |  |  |  | > 70 | > 70 | 50 to 70
CC(C)(C)Sc1nc(N)cc(Oc2ccc(-c3nnc(Nc4cccc(C(F)(F)F)c4)[nH]3)cc2)n1 [Compound 80] | > 70 | 50 to 70 | < 50 |  |  | 
CSc1nc(N)cc(Oc2ccc(-c3nnc(Nc4cccc(CC#N)c4)[nH]3)cc2)n1 [Compound 130] | > 70 | > 70 | < 50 |  |  | 
COCCOc1nc(N)cc(Oc2cccc(-c3nnc(Nc4cccc(C(F)(F)F)c4)[nH]3)c2)n1 [Compound 96] | > 70 | > 70 | > 70 |  |  | 
COc1ccc2c(Oc3ccc(-c4nnc(Nc5cccc(C(F)(F)F)c5)[nH]4)cc3)ccnc2c1 [Compound 11] | > 70 | > 70 | 50 to 70 |  |  | 
Cc1ccc2nccc(Oc3cccc(-c4nnc(Nc5cccc(C(F)(F)F)c5)[nH]4)c3)c2c1 [Compound 172] | > 70 | > 70 | 50 to 70 |  |  | 
FC(F)(F)c1cccc(Nc2nnc(-c3ccc(Oc4ccncc4)cc3)o2)c1 [Compound 29] | > 70 | > 70 | 50 to 70 |  |  | 
